Assay results: patent US9873883B2, “Glyphosate resistant plants and associated methods” (Dow AgroSciences LLC, priority 2012, dated 2018)

Tests used:
[1] = biological target: T1, Brassica napus (canola) EPSP synthase DGT-3 (GENBANK P17688) variant DGT-3 v8 (T→I, P→S; TIPS) (Brassica napus, UniProt P17688, P178S/T174I); assay: In vitro kinetic assay (inorganic phosphate production, malachite green); type: biochemical
T1 construct: made in house; host or cells: E. coli Rosetta2 (DE3)
T1 sequence (P17688 73-516 T174I/P178S): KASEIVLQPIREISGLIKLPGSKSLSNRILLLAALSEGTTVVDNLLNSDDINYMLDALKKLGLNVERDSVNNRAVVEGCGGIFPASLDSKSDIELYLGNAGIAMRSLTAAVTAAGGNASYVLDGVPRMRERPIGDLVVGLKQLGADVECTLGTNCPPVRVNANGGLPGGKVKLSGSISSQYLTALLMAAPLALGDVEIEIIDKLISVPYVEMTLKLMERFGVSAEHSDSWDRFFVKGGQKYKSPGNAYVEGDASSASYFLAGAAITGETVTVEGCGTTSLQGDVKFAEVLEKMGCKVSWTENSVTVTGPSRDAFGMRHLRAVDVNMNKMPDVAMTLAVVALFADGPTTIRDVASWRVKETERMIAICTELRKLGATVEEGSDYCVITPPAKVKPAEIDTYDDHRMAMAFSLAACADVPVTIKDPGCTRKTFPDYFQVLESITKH
Text: (§1) The following Class I enzymes: DGT-1 from Glycine max, DGT-3 from Brassica napus (GENBANK ACC NO: P17688), and DGT-7 from Triticum aestivum (GENBANK ACC NO: EU977181) were used as a comparison. The Class I EPSP synthase enzymes and mutant variants thereof were synthesized and evaluated. A mutation introduced into the plant EPSP synthase enzymes consisted of the Glycine to Alanine mutation made within the EPSP synthase enzyme at a similar location as that of the G96A mutation from the E. coli version of the enzyme. In addition, Threonine to Isoleucine and Proline to Serine mutations were introduced within these Class I EPSP synthase enzymes at analogous positions as that of amino acid 97 (T to I) and amino acid 101 (P to S) in the EPSP synthase of E. coli as described in Funke et al., (2009).
(§2) The location of the amino acid residue which was mutated from glycine to alanine is indicated by the first asterisk. The location of the amino acid residue which was mutated from threonine to isoleucine is indicated by the second asterisk. The location of the third amino acid residue which was mutated from proline to serine is indicated by the third asterisk. These mutations were introduced into different versions of DGT-1, DGT-3, and DGT-7. The different versions of the genes which contain the mutations are described in more detail below.
(§3) Additional constructs containing the dgt-1, dgt-3 and dgt-7 were synthesized. These constructs were used for in vitro testing of the dgt-1 v5, dgt-1 v6, dgt-1 v7, dgt-1 v8, dgt-3 v6, dgt-3 v7, dgt-3 v8, dgt-7 v5, dgt-7 v6, dgt-7 v7, and dgt-7 v8 gene sequences were outsourced to GeneArt for synthesis and cloning. The synthesized genes were cloned into the pET28 expression vector. The resulting constructions were labeled as pDAB102028 containing dgt-1 v5, pDAB102029 containing dgt-1 v6, pDAB102032 containing dgt-1 v7, pDAB102034 containing dgt-1 v8, pDAB100429 containing dgt-3 v6, pDAB100442 containing dgt-3 v7, pDAB100430 containing dgt-3 v8, pDAB102036 containing dgt-7 v5, pDAB102038 containing dgt-7 v6, pDAB102040 containing dgt-7 v7, and pDAB102042 containing dgt-7 v8.
(§4) Recombinant DGT proteins were overexpressed in Rosetta2™ (DE3) cells (Novagen, Madison, Wis.) from the constructs described above. A single colony was used to inoculate 50 mL starter cultures of LB containing chloramphenicol (25 μg/mL) and kanamycin (50 μg/mL) which were cultivated overnight at 37° C. The overnight cultures were used to inoculate 1 L of LB containing chloramphenicol (25 μg/mL) and kanamycin (50 μg/mL). The cultures were grown at 37° C. to an O.D.600=0.6 then placed in an ice water bath for 10 minutes. Expression of the target proteins was achieved by addition of IPTG to a final concentration of 500 μM. Induction was allowed to proceed overnight at 20° C. followed by harvesting via centrifugation at 8,000 rpm for 20 minutes. The cell pellets were stored at −80° C. until required for purification. All purification steps were carried out at 4° C.
(§5) Cell pellets from 1 L cultures were resuspended in 20-30 mL Buffer A (50 mM HEPES pH 7.5, 150 mM KCl, 2 mM DTT, 1 mM EDTA, 20 mM imidazole, and 5% glycerol). COMPLETE™ protease inhibitor cocktail (1 tablet/50 mL, Roche, Indianapolis, Ind.) and lysozyme (1 mg/mL, Sigma-Aldrich, St. Louis, Mo.) were then added and the suspension was stirred for 20 minutes. Cell lysis was performed using a Branson Sonifier 250 (3×60 second bursts) followed by removal of the cell debris by centrifugation at 16,000 rpm for 45 minutes. DGT enzymes were purified to homogeneity in one step via immobilized metal affinity chromatography (IMAC) using a 5 mL HisTrap FF crude column. The column was equilibrated in Buffer A and the sample was loaded in the same buffer. The column was then washed with 10 column volumes of Buffer A followed by elution in a 0-100% Buffer B (50 mM HEPES pH 7.5, 200 mM KCl, 2 mM DTT, 1 mM EDTA, 500 mM imidazole, and 5% glycerol) linear gradient over 25 column volumes. […]

[2] = biological target: T2, Glycine max (soybean) EPSP synthase DGT-1 variant DGT-1 v6 (G→A) (Glycine max, UniProt I1J7U9, G182A); assay: as above; type: biochemical; details: for IC50: IC50 (glyphosate)
T2 sequence (I1J7U9 with tags, fused parts or gaps G182A): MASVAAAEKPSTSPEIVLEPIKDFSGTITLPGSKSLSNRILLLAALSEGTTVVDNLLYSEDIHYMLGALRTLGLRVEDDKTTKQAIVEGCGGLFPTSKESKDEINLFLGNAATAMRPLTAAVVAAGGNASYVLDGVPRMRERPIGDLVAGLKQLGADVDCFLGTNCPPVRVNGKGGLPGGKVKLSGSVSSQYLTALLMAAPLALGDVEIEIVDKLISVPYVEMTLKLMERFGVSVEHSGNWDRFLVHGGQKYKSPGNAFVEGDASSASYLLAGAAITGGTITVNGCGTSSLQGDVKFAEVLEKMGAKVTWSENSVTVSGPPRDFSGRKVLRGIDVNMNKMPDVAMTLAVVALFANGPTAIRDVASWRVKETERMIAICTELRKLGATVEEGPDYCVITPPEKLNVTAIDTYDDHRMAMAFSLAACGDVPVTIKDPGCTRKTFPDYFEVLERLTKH
Text: as §1, §2, §3, §4, §5

SMILES | kcat/Km ([1]; PEP, pH 7.5, 1 mM S3P) [M⁻¹ s⁻¹] | increase of Km for PEP ([2]; G to A mutation vs un-mutated) [fold] | IC50 ([1]; IC50 (glyphosate), at 60 μM PEP) [mM] | IC50 ([1]; IC50 (glyphosate), at 1 mM PEP) [mM] | IC50 ([1]; tolerance to glyphosate, PEP concentration not given) [mM] | IC50 ([2]; at 60 μM PEP) [mM] | IC50 ([2]; at 1 mM PEP) [mM]
C=C(OP(=O)(O)O)C(=O)O [PEP, phosphoenolpyruvate] | 32900 | ~8 |  |  |  |  | 
O=C(O)CNCP(=O)(O)O [glyphosate, N-(phosphonomethyl)glycine] |  |  | 4.8 | 13.3 | 3 to 6 | 17.3 | 21.1
